In US20070014736A1, “Methods of delivering corticotroph-derived glycoprotein hormone” (priority 2005, published 2007):

What was measured:
adrenal glands = assay: Intraperitoneal recombinant CGH for two weeks, adrenal weight; assay type: in vivo, mice; settings: 0.5 mg/kg Dex i.p. daily, day 15
Source text: Summary: Mice were exposed to CGH through infection with adenovirus particles expressing GPHA2 and GPHB5, leading to overexpression and secretion of CGH from the liver of these animals. […] The hypertrophy was apparent in the inner cortical layers, the zona fasciculata and the zona reticularis. Similarly, mice were exposed to CGH through intraperitoneal injection of recombinant CGH protein alone, recombinant CGH protein along with the glucocorticoid Dexamethasone (Dex), Dex alone, or PBS alone daily for two weeks.
Sixteen C57BL/6 female mice at 8 weeks of age were separated into four groups. The first group received daily injections of 0.25 mg/kg of recombinant CGH protein intraperitoneally. The second group received daily injections of PBS using the same procedure. The third group received daily injections of 0.25 mg/kg of CGH plus 0.05 mg/kg Dex and the final group received 0.5 mg/kg Dex, alone. Animals were sacrificed on day 15 and the adrenal glands were isolated and weighed. Example 5 describes the expression and purification of recombinant CGH protein used in this experiment.

[1] = tested on: LPS-induced mild endotoxemia mouse model; assay: LPS-induced mild endotoxemia mouse model, serum cytokines; assay type: in vivo, mice
Description: An in vivo experiment was designed to examine the effect of CGH in a mouse model of LPS-induced mild endotoxemia. This model mimics acute endotoxemia/sepsis by challenging mice with a low, non-lethal dose of bacterial endotoxin (lipopolysaccharide, LPS). Serum is collected at various timepoints (1-8 hours) after intraperitoneal LPS injection and analyzed for altered expression of a wide variety of pro- and anti-inflammatory cytokines and acute phase proteins that mediate the inflammatory response. The model provides a means to assess the potential anti-inflammatory effects of therapeutic candidates during a robust inflammatory response. To initially assess the model, we measured proinflammatory cytokines in a pilot experiment to collect reference data for the model.
C57B1/6 mice (Charles River Laboratories; 5 mice/group) were treated i.p. with PBS, 0.2 mg/kg CGH in PBS, or 2 mg/kg CGH in PBS 1 hour prior to LPS challenge. The mice were then challenged with 25 ug of LPS i.p. and bled at 1 hour and 4 hours after LPS injection. Serum was analyzed for TNF[…] (1 hour) and IL-6 (4 hours) levels by ELISA.
To determine if CGH would potentiate the effect of a sub-maximal dose of glucocorticoid, groups of 10 C57B1/6 mice each were treated i.p. with PBS, 0.15 or 1.5 mg/kg Dex, 2 mg/kg CGH, or a combination of CGH and low or high doses of Dex, 1 hour prior to injection of 25 ug LPS i.p. As shown in TABLE 3 (Expt #2), either 2 mg/kg CGH or 1.5 mg/kg Dex treatment alone (1 hour prior to LPS) caused a significant drop in serum TNFα levels at 1 hour, as observed in previous experiments. The effects of CGH administered in conjunction with Dex on inhibition of TNFα production were greater than either dose of Dex alone.

[2] = tested on: Delayed Type Hypersensitivity (DTH) reaction; assay: Delayed Type Hypersensitivity (DTH), change in ear thickness; assay type: in vivo, mice
[3] = tested on: neutrophil infiltration in the ears; assay: Neutrophil (Gr-1) histomorphometry of ears in DTH experiment #1; assay type: in vivo, mice; settings: 1.5 mg/kg Dex i.p. at challenge (day 7)
Description: Ears from mice in DTH experiment #1 were analyzed by immunohistochemistry to assess which cell types were most affected by CGH treatment. Ears were fixed in Zinc/Tris buffer (2.3 mM calcium acetate/31.6 mM zinc acetate/36.7 mM zinc chloride in 0.1M Tris-HCL buffer, pH 7.4) for 24 hours at room temperature and stained with antibodies specific for CD4, CD8, CD11c, and Gr-1 (neutrophils). […] Ears were stained using a TechMate 500 autoimmunostainer (Biotech/Ventana) MIP protocol with some modifications. […] This step was followed, after a wash, by biotinylated rabbit anti-rat IgG secondary antibody (Dako, used at 10 ug/ml in PBS with 2% normal rabbit serum and 2% nonfat dry milk) for 45 min. The sections were then washed and treated with HP Block (1.5% H2O2 in 50% methanol) 3 times, 7 min each, followed by 25 min in avidin-biotin complex, 3 times of 4 min each in DAB (Diaminobenzidine), then with Methyl green for 10 min.
From this staining procedure, there was a clear reduction in the number of neutrophils infiltrating the ears of those mice treated with CGH or Dex, compared to the PBS-treated controls. Histomorphometry was performed to obtain the average pixel density of neutrophils per unit length (1 mm) present in the ear samples. Despite a fair amount of variability among each group, there was a significant reduction in neutrophil staining in the Dex and low dose CGH groups, as well as a nearly significant (p=0.0507) reduction in the high dose CGH group (see TABLE 5, p values).

human primary adipocytes = assay: CRE-luciferase reporter assay in human primary adipocytes; assay type: cell-based
Source text: (§1) Differentiated murine 3T3 L1 adipocytes and primary human adipocytes were used to study signal transduction of CGH. 3T3 L1 fibroblasts were differentiated into adipocytes and the cells were transduced with recombinant adenovirus containing a reporter construct, a firefly luciferase gene under the control of cAMP response element (CRE) enhancer sequences. This assay system detects cAMP-mediated gene induction downstream of activation of Gs-coupled G-protein coupled receptors (GPCR's). […] In a separate experiment, undifferentiated 3T3 L1 fibroblasts were transduced with the recombinant adenovirus. […] In another experiment, human primary adipocytes were also transduced with the recombinant adenovirus containing a reporter construct. Treatment of the human adipocytes with isoproterenol produced a 17-fold induction of luciferase expression.
(§2) Cells were cultured at 37° C. in an 8% CO2 humidified incubator. Cells were seeded to collagen-coated 96-well plates (Becton Dickinson, cat. #356407) at a density of 5,000 cells per well. […] Luciferase activity was measured on a microplate luminometer (PerkinElmer Life Sciences, Inc., model LB 96V2R) following automated injection of 40 μl of luciferase assay substrate into each well. […]

[4] = tested on: differentiated 3T3 L1 adipocytes; assay: CRE-luciferase reporter assay in differentiated 3T3 L1 adipocytes; assay type: cell-based, murine
Source text: as §1, §2

[5] = target: T1, thyroid-stimulating hormone receptor (TSHR) expressed on BHK cells (BHK-TSHR cells) (UniProt P16473 21-764, limits assumed); assay: radioligand saturation binding to BHK-TSHR cells, two-site non-linear regression, high-affinity site
T1 construct: whole, on cells; also called TSH receptor
Description: (§3) Binding reactions were terminated by removing the binding medium and the cell monolayers were washed three times with 1.0-2.0 ml of ice-cold PBS containing 1.0 mg/ml BSA and twice with 1.0-2.0 ml of ice cold albumin-free PBS. Cells were solubilized in 1.0 ml of 1.0N NaOH for 10 min at room temperature and cell-associated radioactivity was determined in a gamma counter. The measured radioactivity was normalized to cell number that was determined on plates of cells cultured in parallel. Binding data were analyzed by non-linear regression using Prizm 3.0 (GraphPad Software, San Diego, Calif.).

[6] = target: T1, thyroid-stimulating hormone receptor …; assay: radioligand saturation binding to BHK-TSHR cells, two-site non-linear regression, low-affinity site
Description: as §3

TSHR = assay: Binding of 125I-CGH and 125I-TSH to BHK cells expressing the TSHR; set-up: species or system murine or human
Description: as §3, with “BHK cells expressing murine or human TSHRs were cultured in Dulbecco's Modified Eagle's Medium [DMEM (high glucose)] containing 5% fetal bovine serum, 1% Glutamax, 1% sodium pyruvate, 250 nM methotrexate, and Geneticin ( 1/100). […] Plates of cells were placed on ice and washed twice with 1.0-2.0 ml of ice-cold PBS. […] Specific binding was determined in the presence (nonspecific binding) and absence (total binding) of unlabeled rhCGH (25.0 μg/ml) or TSH (10 μg/ml). Binding reactions” for “Binding reactions”

human TSHR = target: T2, human TSHR (Homo sapiens, UniProt P16473); assay: Bioactivity in BHK cells with CRE-luciferase reporter and human TSHR; assay type: cell-based; settings: CRE-luciferase reporter
T2 construct: expressed in transfected cells; host or cells: BHK cells

[7] = tested on: parental BHK cells lacking the TSHR; assay: Binding of radioligands to parental BHK cells; settings: data not shown
Description: as §3, with “BHK cells expressing murine or human TSHRs were cultured in Dulbecco's Modified Eagle's Medium [DMEM (high glucose)] containing 5% fetal bovine serum, 1% Glutamax, 1% sodium pyruvate, 250 nM methotrexate, and Geneticin ( 1/100). […] Plates of cells were placed on ice and washed twice with 1.0-2.0 ml of ice-cold PBS. […] Specific binding was determined in the presence (nonspecific binding) and absence (total binding) of unlabeled rhCGH (25.0 μg/ml) or TSH (10 μg/ml). Binding reactions” for “Binding reactions”

[8] = Expt 1, 1.5 mg/kg Dex i.p. at challenge (d7), 24 h
[9] = Expt 2, 1.5 mg/kg Dex i.p. at challenge (d7)
[10] = Expt 3, 1.5 mg/kg Dex i.p. at sensitization (d0-4)

Molecule: C[C@@H]1C[C@H]2[C@@H]3CCC4=CC(=O)C=C[C@]4(C)[C@@]3(F)[C@@H](O)C[C@]2(C)[C@@]1(O)C(=O)CO [Dex, Dexamethasone, reference compound]
- Average adrenal weight/100 g body weight (adrenal glands): 13.12 +/− 0.88
- IL-6, 4 hours ([1]; Expt 2, 0.15 mg/kg Dex): 37.1 ± 8.8 ng/mL
- TNFα, 1 hour ([1]; Expt 2, 0.15 mg/kg Dex): 1765 ± 589 pg/mL
- IL-6, 4 hours ([1]; Expt 2, 1.5 mg/kg Dex): 16.0 ± 4.9 ng/mL
- TNFα, 1 hour ([1]; Expt 2, 1.5 mg/kg Dex): 264 ± 138 pg/mL
- Change in ear thickness, left ear (PBS) [2, 8]: 0.42 +/− 0.52 ×10^−3 inch
- Change in ear thickness, right ear (OVA) [2, 8]: 2.62 +/− 1.18 ×10^−3 inch
- Change in ear thickness, left ear (PBS) [2, 9]: 0.23 +/− 0.77 ×10^−3 inch
- Change in ear thickness, right ear (OVA) [2, 9]: 2.89 +/− 1.29 ×10^−3 inch
- Change in ear thickness, left ear (PBS) [2, 10]: 0.50 +/− 0.54 ×10^−3 inch
- Change in ear thickness, right ear (OVA) [2, 10]: 4.38 +/− 1.34 ×10^−3 inch
- Pixel density: Neutrophils, left ear (PBS) [3]: 749 +/− 686
- Pixel density: Neutrophils, right ear (OVA) [3]: 3651 +/− 2779

Molecule: CC(C)NCC(O)c1ccc(O)c(O)c1 (centres unmarked) [isoproterenol, reference compound]
- induction of luciferase expression / reporter gene (human primary adipocytes): 17 fold
- induction of luciferase expression [4]: 80 fold

B1: recombinant human Corticotroph-derived Glycoprotein Hormone (rhCGH), heterodimer of GPHA2 and GPHB5 (ligand)
chain 1: QEAVIPGCHLHPFNVTVRSDRQGTCQGSHVAQACVGHCESSAFPSRYSVLVASGYRHNITSVSQCCTISGLKKVKVQLQCVGSRREELEIFTARACQCDMCRLSRY
chain 2: ASSGNLRTFVGCAVREFTFLAKKPGCRGLRITTDACWGRCETWEKPILEPPYIEAHHRVCTYNETKQVTVKLPNCAPGVDPFYTYPVAIRCDCGACSTATTECETI
notes: correct NH2 termini reported; also called Thyrostimulin
- Kd [5]: 0.00119 µM
- Kd [6]: 2700 µM

B2: ^125I-CGH: rhCGH radiolabeled with 125I-Bolton Hunter Reagent (protein)
chain 1: QEAVIPGCHLHPFNVTVRSDRQGTCQGSHVAQACVGHCESSAFPSRYSVLVASGYRHNITSVSQCCTISGLKKVKVQLQCVGSRREELEIFTARACQCDMCRLSRY
chain 2: ASSGNLRTFVGCAVREFTFLAKKPGCRGLRITTDACWGRCETWEKPILEPPYIEAHHRVCTYNETKQVTVKLPNCAPGVDPFYTYPVAIRCDCGACSTATTECETI
- high affinity sites per cell (TSHR): 86,000 sites per cell
- Hill slope (TSHR; specific-binding data): 1.08
- Bmax, high-affinity site (TSHR; two-site model): 139±74 fmol/10^6 cells
- Bmax, low-affinity site (TSHR; two-site model): 1.6±1.4×10^6 fmol/10^6 cells
- bioactivity compared to unlabeled counterpart (human TSHR): no significant differences
- binding to parental BHK cells lacking the TSHR [7]: Little or no binding
